Source: ChEMBL document CHEMBL1909046, “DrugMatrix in vitro pharmacology data”

Columns and labels:
[1] = molecular target: T1, Alpha-2A adrenergic receptor (Homo sapiens, UniProt P08913); type: cell membranes, Sf9, Membrane; further: in other assays of this panel Not Active means under 50% inhibition at 10 µM
T1 sequence (P08913 whole entry): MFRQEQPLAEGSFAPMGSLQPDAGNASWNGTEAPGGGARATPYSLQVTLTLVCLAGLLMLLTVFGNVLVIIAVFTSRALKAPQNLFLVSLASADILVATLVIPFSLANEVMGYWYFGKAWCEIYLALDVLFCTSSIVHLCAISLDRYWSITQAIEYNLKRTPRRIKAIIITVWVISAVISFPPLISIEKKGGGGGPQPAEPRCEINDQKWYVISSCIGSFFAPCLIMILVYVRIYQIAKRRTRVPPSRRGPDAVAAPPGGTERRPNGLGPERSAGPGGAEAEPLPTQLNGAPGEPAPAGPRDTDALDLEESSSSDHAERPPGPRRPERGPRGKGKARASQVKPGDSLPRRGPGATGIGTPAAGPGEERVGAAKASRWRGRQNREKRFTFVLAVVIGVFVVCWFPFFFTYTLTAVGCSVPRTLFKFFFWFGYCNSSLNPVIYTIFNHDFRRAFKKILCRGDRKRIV

[2] = molecular target: T2, Amine oxidase [flavin-containing] A (Homo sapiens, UniProt P21397); experiment: DRUGMATRIX: Monoamine Oxidase MAO-A enzyme inhibition (substrate: Kynuramine); set-up: species or system BTI-TN-5B1-4; settings: bti-tn-5b1-4; Not Active = under 50% inhibition at 10 µM
T2 sequence (P21397 whole entry): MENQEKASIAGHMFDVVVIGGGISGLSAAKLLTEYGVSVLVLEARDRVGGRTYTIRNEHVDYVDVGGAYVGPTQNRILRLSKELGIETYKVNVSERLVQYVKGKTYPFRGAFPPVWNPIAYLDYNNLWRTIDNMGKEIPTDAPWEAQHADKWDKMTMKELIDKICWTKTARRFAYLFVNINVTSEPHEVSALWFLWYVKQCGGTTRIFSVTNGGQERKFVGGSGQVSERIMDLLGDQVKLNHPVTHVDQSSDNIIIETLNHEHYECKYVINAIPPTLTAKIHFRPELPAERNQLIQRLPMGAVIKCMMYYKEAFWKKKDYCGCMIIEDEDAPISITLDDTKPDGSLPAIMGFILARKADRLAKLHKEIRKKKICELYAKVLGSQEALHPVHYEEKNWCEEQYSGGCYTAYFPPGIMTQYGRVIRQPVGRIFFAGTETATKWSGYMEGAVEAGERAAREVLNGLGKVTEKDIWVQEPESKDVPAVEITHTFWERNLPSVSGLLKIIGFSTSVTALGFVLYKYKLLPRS

[3] = DRUGMATRIX: Nicotinic Acetylcholine radioligand binding (ligand: [125I] Epibatidine); type: cell membranes, Membrane; settings: imr-32; Not Active = under 50% inhibition at 10 µM
[4] = molecular target: Receptor tyrosine-protein kinase erbB-2 (Homo sapiens, UniProt P04626); experiment: biochemical; type: cell-based, Insect cells;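 further: inhibition of HER2 kinase enzyme activity, measured with Poly(Glu:Tyr) as the phosphorylation substrate; in other assays of this panel Not Active means under 50% inhibition at 10 µM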
[5] = molecular target: T3, Receptor-type tyrosine-protein phosphatase C (Homo sapiens, UniProt P08575); set-up: species or system Escherichia coli;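 further: inhibition of CD45 enzyme activity measured using DiFMUP as substrate; in other assays of this panel Not Active means under 50% inhibition at 10 µM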
T3 sequence (P08575 whole entry): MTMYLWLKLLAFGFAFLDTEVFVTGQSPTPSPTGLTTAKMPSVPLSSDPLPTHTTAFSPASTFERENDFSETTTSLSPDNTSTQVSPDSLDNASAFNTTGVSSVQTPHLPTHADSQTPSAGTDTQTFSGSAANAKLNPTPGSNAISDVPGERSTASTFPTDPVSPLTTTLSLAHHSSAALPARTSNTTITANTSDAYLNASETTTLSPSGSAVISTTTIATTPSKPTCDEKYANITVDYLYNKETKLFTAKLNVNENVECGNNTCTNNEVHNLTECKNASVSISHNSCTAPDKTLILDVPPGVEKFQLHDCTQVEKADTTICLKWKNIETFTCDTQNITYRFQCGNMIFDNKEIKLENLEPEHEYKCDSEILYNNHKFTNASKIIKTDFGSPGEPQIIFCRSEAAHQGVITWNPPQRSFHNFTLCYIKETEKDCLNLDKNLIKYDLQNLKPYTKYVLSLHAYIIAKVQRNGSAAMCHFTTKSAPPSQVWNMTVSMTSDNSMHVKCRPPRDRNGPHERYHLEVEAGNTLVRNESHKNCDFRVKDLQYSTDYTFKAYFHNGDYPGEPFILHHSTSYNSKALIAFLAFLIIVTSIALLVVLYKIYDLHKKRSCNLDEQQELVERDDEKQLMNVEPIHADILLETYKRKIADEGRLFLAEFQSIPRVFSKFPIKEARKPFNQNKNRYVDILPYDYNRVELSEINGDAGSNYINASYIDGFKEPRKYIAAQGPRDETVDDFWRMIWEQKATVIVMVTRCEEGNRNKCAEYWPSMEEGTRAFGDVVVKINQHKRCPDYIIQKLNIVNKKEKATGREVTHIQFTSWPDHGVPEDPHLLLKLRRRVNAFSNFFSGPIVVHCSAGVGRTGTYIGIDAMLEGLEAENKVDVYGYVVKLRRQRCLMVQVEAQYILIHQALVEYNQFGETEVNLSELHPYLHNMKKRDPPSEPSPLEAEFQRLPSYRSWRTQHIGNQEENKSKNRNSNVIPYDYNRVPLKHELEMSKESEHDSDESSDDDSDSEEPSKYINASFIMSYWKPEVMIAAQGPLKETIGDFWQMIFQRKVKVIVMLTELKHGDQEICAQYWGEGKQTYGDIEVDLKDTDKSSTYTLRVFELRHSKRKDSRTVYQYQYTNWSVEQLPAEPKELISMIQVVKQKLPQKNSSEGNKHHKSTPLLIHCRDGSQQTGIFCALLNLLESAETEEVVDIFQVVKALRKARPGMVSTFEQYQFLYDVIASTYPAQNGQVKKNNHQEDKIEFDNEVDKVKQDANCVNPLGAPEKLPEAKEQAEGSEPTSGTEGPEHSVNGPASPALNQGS

Receptor tyrosine-protein kinase erbB-2, sequence (P04626 whole entry): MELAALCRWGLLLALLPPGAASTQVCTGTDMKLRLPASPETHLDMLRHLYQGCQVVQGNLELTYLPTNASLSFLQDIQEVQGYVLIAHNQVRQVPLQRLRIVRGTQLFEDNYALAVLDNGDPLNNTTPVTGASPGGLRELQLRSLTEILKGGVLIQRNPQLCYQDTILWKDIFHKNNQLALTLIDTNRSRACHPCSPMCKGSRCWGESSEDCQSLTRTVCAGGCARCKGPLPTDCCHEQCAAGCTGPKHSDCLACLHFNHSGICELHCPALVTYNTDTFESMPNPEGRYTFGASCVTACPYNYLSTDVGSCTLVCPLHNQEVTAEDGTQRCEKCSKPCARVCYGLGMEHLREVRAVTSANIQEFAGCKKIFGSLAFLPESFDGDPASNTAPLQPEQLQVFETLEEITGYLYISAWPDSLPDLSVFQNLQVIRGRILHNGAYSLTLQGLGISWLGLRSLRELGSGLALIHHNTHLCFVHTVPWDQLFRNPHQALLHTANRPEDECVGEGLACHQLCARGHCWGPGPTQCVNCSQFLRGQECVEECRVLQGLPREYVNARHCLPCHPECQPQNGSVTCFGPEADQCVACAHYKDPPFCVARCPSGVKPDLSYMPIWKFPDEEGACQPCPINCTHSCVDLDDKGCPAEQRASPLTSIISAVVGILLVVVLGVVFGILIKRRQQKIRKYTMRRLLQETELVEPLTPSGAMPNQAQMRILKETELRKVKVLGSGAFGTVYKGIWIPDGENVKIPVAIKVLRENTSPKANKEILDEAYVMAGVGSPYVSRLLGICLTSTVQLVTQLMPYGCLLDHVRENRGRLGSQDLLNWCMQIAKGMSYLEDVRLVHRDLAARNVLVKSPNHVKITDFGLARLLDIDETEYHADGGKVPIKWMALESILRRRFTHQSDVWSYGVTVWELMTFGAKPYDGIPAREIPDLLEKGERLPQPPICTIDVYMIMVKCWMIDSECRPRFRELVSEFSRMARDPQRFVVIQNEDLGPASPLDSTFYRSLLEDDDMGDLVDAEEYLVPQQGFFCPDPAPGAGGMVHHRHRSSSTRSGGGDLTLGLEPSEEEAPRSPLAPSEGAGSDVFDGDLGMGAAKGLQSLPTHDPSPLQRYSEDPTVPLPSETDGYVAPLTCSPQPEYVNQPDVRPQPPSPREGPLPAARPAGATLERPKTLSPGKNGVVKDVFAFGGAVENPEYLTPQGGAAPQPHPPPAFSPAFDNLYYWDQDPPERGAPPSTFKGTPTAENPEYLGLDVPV

Compound: CN[C@@H]1[C@@H](O)[C@@H](O[C@@H]2[C@@H](O)[C@H](O[C@H]3OC(CN)=CC[C@H]3N)[C@@H](N)C[C@H]2N)OC[C@]1(C)O [SISOMICIN]
- IC50 ([1]; sf9): Not Active
- IC50 [2]: Not Active
- IC50 [3]: Not Active
- Ki [3]: Not Active
- IC50 ([4]; insect cells): Not Active
- IC50 [5]: Not Active

Compound: NNc1ccccc1 [PHENYLHYDRAZINE]
- IC50 ([1]; sf9): Not Active
- IC50 [2]: Not Active
- IC50 [3]: Not Active
- Ki [3]: Not Active
- IC50 ([4]; insect cells): Not Active
- IC50 [5]: Not Active

Compound: C[C@](N)(Cc1ccc(O)cc1)C(=O)O [METYROSINE]
- IC50 ([1]; sf9): Not Active
- IC50 [2]: Not Active
- IC50 [3]: Not Active
- Ki [3]: Not Active
- IC50 ([4]; insect cells): Not Active
- IC50 [5]: Not Active

Compound: CN1CCN2c3ccccc3Cc3ccccc3C2C1 (stereo not given) [MIANSERIN]
- IC50 [2]: Not Active
- IC50 ([4]; insect cells): Not Active
- IC50 [5]: Not Active

Compound: CC(=O)[C@H]1CC[C@H]2[C@@H]3CCC4=CC(=O)CC[C@]4(C)[C@H]3CC[C@]12C [PROGESTERONE]
- IC50 ([1]; sf9): Not Active
- IC50 [2]: Not Active
- IC50 [3]: Not Active
- Ki [3]: Not Active
- IC50 ([4]; insect cells): Not Active
- IC50 [5]: Not Active

Compound: Nc1ccc(S(=O)(=O)Nc2ccnn2-c2ccccc2)cc1 [SULFAPHENAZOLE]
- IC50 ([1]; sf9): Not Active
- IC50 [2]: Not Active
- IC50 [3]: Not Active
- Ki [3]: Not Active
- IC50 ([4]; insect cells): Not Active
- IC50 [5]: Not Active

Compound: CC(CCc1ccccc1)NCC(O)c1ccc(O)c(C(N)=O)c1 (stereo not given) [LABETALOL]
- IC50 ([1]; sf9): Not Active
- IC50 [2]: Not Active
- IC50 [3]: Not Active
- Ki [3]: Not Active
- IC50 ([4]; insect cells): Not Active
- IC50 [5]: Not Active

Compound: CC(C)(C)NC(=O)[C@@H]1CN(Cc2cccnc2)CCN1C[C@@H](O)C[C@@H](Cc1ccccc1)C(=O)N[C@H]1c2ccccc2C[C@H]1O.O
- IC50 ([1]; sf9): Not Active
- IC50 [2]: Not Active
- IC50 [3]: Not Active
- Ki [3]: Not Active
- IC50 ([4]; insect cells): Not Active
- IC50 [5]: Not Active

Compound: CSc1ccc2c(c1)N(CCC1CCCCN1C)c1ccccc1S2 (stereo not given) [THIORIDAZINE]
- IC50 [2]: Not Active
- IC50 ([4]; insect cells): Not Active
- IC50 [5]: Not Active

Compound: COc1c(C)c2c(c(O)c1C/C=C(\C)CCC(=O)OCCN1CCOCC1)C(=O)OC2 [MYCOPHENOLATE MOFETIL]
- IC50 ([1]; sf9): Not Active
- IC50 [2]: Not Active
- IC50 [3]: Not Active
- Ki [3]: Not Active
- IC50 ([4]; insect cells): Not Active
- IC50 [5]: Not Active

Compound: CN[C@H](CC(C)C)C(=O)N[C@H]1C(=O)N[C@@H](CC(N)=O)C(=O)N[C@H]2C(=O)N[C@H]3C(=O)N[C@H](C(=O)N[C@H](C(=O)O)c4cc(O)cc(O)c4-c4cc3ccc4O)[C@H](O)c3ccc(c(Cl)c3)Oc3cc2cc(c3O[C@@H]2O[C@H](CO)[C@@H](O)[C@H](O)[C@H]2O[C@H]2C[C@](C)(N)[C@H](O)[C@H](C)O2)Oc2ccc(cc2Cl)[C@H]1O [VANCOMYCIN]
- IC50 ([1]; sf9): Not Active
- IC50 [2]: Not Active
- IC50 [3]: Not Active
- Ki [3]: Not Active
- IC50 ([4]; insect cells): Not Active
- IC50 [5]: Not Active

Compound: CC(C)[C@H](N)C(=O)OCCOCn1cnc2c(=O)nc(N)[nH]c21 [VALACYCLOVIR]
- IC50 ([1]; sf9): Not Active
- IC50 [2]: Not Active
- IC50 [3]: Not Active
- Ki [3]: Not Active
- IC50 ([4]; insect cells): Not Active
- IC50 [5]: Not Active

Compound: COS(C)(=O)=O [METHANESULFONIC ACID METHYL ESTER]
- IC50 ([1]; sf9): Not Active
- IC50 [2]: Not Active
- IC50 [3]: Not Active
- Ki [3]: Not Active
- IC50 ([4]; insect cells): Not Active
- IC50 [5]: Not Active

Compound: CC1CN(c2cc3c(cc2F)c(=O)c(C(=O)O)cn3-c2ccc(F)cc2F)CCN1 (stereo not given) [TEMAFLOXACIN]
- IC50 ([1]; sf9): Not Active
- IC50 [2]: Not Active
- IC50 [3]: Not Active
- Ki [3]: Not Active
- IC50 ([4]; insect cells): Not Active
- IC50 [5]: Not Active

Compound: O=C1c2c(O)ccc(O)c2C(=O)c2c(NCCNCCO)ccc(NCCNCCO)c21 [MITOXANTRONE]
- IC50 ([1]; sf9): Not Active
- IC50 [2]: Not Active
- IC50 [3]: Not Active
- Ki [3]: Not Active
- IC50 ([4]; read-out: IC50): 2.04 µM
- IC50 [5]: Not Active

Compound: CN(C)[C@@H]1C(O)=C(C(N)=O)C(=O)[C@@]2(O)C(O)=C3C(=O)c4c(O)cccc4[C@@](C)(O)[C@H]3C[C@@H]12 [TETRACYCLINE]
- IC50 ([1]; sf9): Not Active
- IC50 [2]: Not Active
- IC50 [3]: Not Active
- Ki [3]: Not Active
- IC50 ([4]; insect cells): Not Active
- IC50 [5]: Not Active

Compound: CN(C)CCCN1c2ccccc2CCc2ccc(Cl)cc21 [CLOMIPRAMINE]
- IC50 ([1]; read-out: IC50): 1.41 µM
- IC50 [2]: Not Active
- IC50 ([4]; insect cells): Not Active
- IC50 [5]: Not Active

Compound: CC(C)(O)c1ccccc1CC[C@@H](SCC1(CC(=O)O)CC1)c1cccc(/C=C/c2ccc3ccc(Cl)cc3n2)c1 [MONTELUKAST]
- IC50 [2]: Not Active
- IC50 ([4]; insect cells): Not Active
- IC50 [5]: Not Active

Compound: Clc1ccccc1C(c1ccccc1)(c1ccccc1)n1ccnc1 [CLOTRIMAZOLE]
- IC50 [2]: Not Active
- IC50 ([4]; read-out: IC50): 66.4 µM
- IC50 [5]: Not Active

Compound: COC(=O)[C@@H]1[C@H]2C[C@H]3c4[nH]c5ccccc5c4CCN3C[C@@H]2CC[C@@H]1O [YOHIMBINE]
- IC50 [2]: Not Active
- IC50 [3]: Not Active
- Ki [3]: Not Active
- IC50 ([4]; insect cells): Not Active
- IC50 [5]: Not Active

Compound: COc1cccc(C2(O)CCCCC2CN(C)C)c1 (stereo not given) [TRAMADOL]
- IC50 ([1]; sf9): Not Active
- IC50 [2]: Not Active
- IC50 ([4]; insect cells): Not Active
- IC50 [5]: Not Active

Compound: O=C(CCCN1CCC(O)(c2ccc(Cl)cc2)CC1)c1ccc(F)cc1 [HALOPERIDOL]
- IC50 [2]: Not Active
- IC50 ([4]; insect cells): Not Active
- IC50 [5]: Not Active

Compound: COc1ccc(CCN2CCC(Nc3nc4ccccc4n3Cc3ccc(F)cc3)CC2)cc1 [ASTEMIZOLE]
- IC50 [2]: Not Active
- IC50 ([4]; read-out: IC50): 13.1 µM
- IC50 [5]: Not Active
